Measurements taken from patent US7439343B2, “Aminoglycoside-polyamine displacers and methods of use in displacement chromatography” (Rensselaer Polytechnic Institute, priority 2005, dated 2008).

Legend:
[1] = tested on: DNA; test: Ethidium bromide displacement assay (DNA binding); parameters: species or system calf; conditions: 96-well format
Excerpt: A method for condensing DNA comprising combining the DNA with at least one of the aforementioned derivatives of a carbohydrate compound wherein the DNA is bound to the carbohydrate compound is presented in accordance with the present invention. FIG. 3 depicts a graph of DNA binding efficacy of the displacer candidates in an embodiment of the present invention. The Y axis is % fluorescence decreased and the X axis is the carbohydrate derivative evaluated.
Referring to FIG. 3, an ethidium bromide displacement assay was employed to evaluate the DNA-binding affinity of carbohydrate derivatives in a 96-well format. Using this screen, the percent fluorescence decreased was used as a parameter to rank the DNA-binding efficacy of the various compounds.

[2] = target: horse cytochrome-C on Source 15S cation exchange resin; test: Batch displacement assay, cytochrome-C on Source 15S; format: binding; conditions: input displacer concentration displacing 50% of bound protein; 50 mM phosphate, pH 6.0
Excerpt: (§1) A modified batch displacement assay was used to investigate displacer efficacy of the carbohydrate derivatives over a wide range of concentrations. The carbohydrate derivatives from hereon will be referred to as the displacer candidates unless otherwise specified. Different input concentrations of the displacer candidates were employed to determine the DC50 value, which is the input displacer concentration required to displace fifty percent of the initially bound protein. The lower the DC50 value the more efficacious is the displacer candidate.
(§2) Column 201 is the displacer candidate evaluated. Column 202 is DC50 values of horse cytochrome-C on HP Sepharose SP. Column 203 is the DC50 values of horse cytochrome-C on Source 15S cation exchange resin. The above approach was employed to determine the DC50 values of the displacer candidates for the displacement of horse cytochrome-C on HP Sepharose SP and Source 15S cation exchange resins at pH 6.0.
The influence of the stationary phase on displacer affinity was investigated using a second strong cation exchange resin, Source 15S.
(§3) The bulk stationary phase (HP Sepharose SP or Source 15S) was first washed once with de-ionized water and then three times with the buffer, (50 mM phosphate, pH 6.0) and allowed to equilibrate for 2 hours. After gravity-settling of the stationary phase, the supernatant was removed and 3.0 mL of the remaining stationary phase slurry was equilibrated with 36 ml containing 3 mg/ml of the protein (horse heart cytochrome-C or chicken egg lysozyme) in 50 mM phosphate buffer, pH 6.0, at 20° C.
(§4) The protein was equilibrated with the resin for five hours in order to attain complete equilibration during which, the stationary phase was allowed to gravity-settle. Upon settling, the supernatant was removed and the protein content in the supernatant was determined using absorbance detection at 280 or 405 nm using a plate reader. The mass of the protein adsorbed on the stationary phase was determined by mass balance.
(§5) For the screening experiments, 300 μL of different initial concentrations (ranging from 0.3 to 5 mM) of a displacer solution was added to 25 μL aliquots of the stationary phase slurry with bound protein. (note: a different displacer candidate and concentration were employed for each vial to enable parallel screening). The system was equilibrated for 5 h. After equilibrium was achieved, the supernatant was removed and the protein content was determined by absorbance detection at 280 or 405 nm using a plate reader.
(§6) The percent protein displaced, was calculated for each aliquot based on the protein mass balance and the data was plotted as a function of the initial displacer concentration. The resulting plots were then employed to determine the initial displacer concentration required to displace fifty percent of the adsorbed protein (i.e. the DC50).

[3] = target: horse cytochrome-C on HP Sepharose SP; test: Batch displacement assay, cytochrome-C on HP Sepharose SP; format: binding; conditions: input displacer concentration displacing 50% of bound protein; 50 mM phosphate, pH 6.0
Excerpt: as §1
as §2, with “Table 1 is of displacer candidates and their respective DC50 values of horse cytochrome-C on HP Sepharose SP and Source 15S cation exchange resins in accordance with the present invention. Column 201” for “Column 201”
as §3, §4, §5, §6

[4] = tested on: chicken-egg lysozyme adsorbed on HP Sepharose SP; test: Batch displacement assay, lysozyme on HP Sepharose SP; format: binding; conditions: displacer concentration 2.5 mM
Experimental: FIG. 2 depicts a graph comparing the % lysozyme and % cytochrome-C displaced on HP Sepharose SP in accordance with the present invention. The Y axis is % protein displaced. The X axi is the displacer candidate evaluated. The displacer candidate concentration is 2.5 mM in an embodiment of the present invention. In order to evaluate the displacer candidates with another protein, experiments were carried out with chicken-egg lysozyme adsorbed on HP Sepharose SP. Referring to FIG. 2, a comparison of the percent protein displaced for both lysozyme and cytochrome-C at displacer concentrations of 2.5 mM is shown. The data is arranged in increasing order of percent lysozyme displaced. […] Upon settling, the supernatant was removed and the protein content in the supernatant was determined using absorbance detection at 280 or 405 nm using a plate reader. The mass of the protein adsorbed on the stationary phase was determined by mass balance. […] After equilibrium was achieved, the supernatant was removed and the protein content was determined by absorbance detection at 280 or 405 nm using a plate reader. The percent protein displaced, was calculated for each aliquot based on the protein mass balance and the data was plotted as a function of the initial displacer concentration. […]

| % fluorescence decreased [1] | DC50 [2] [µM] | DC50 [3] [µM] | DC50-Cytochrome C on Source 15S [2] | SMILES | DC50-Cytochrome C on HP Sepharose SP [3] | percent protein displaced (lysozyme) [4] [%] |
| --- | --- | --- | --- | --- | --- | --- |
| relatively low efficacies | 3100 ± 2290 | 6200 ± 370 |  | NC[C@H]1O[C@H](O[C@H]2[C@H](O)[C@@H](O[C@H]3O[C@H](CO)[C@@H](O)[C@H](N)[C@H]3O)[C@H](N)C[C@@H]2N)[C@H](N)[C@@H](O)[C@@H]1O [Bekanamycin, bekanamycin, reference compound] |  |  |
|  | 800 | 2800 ± 200 | sub-millimolar | NCCCNCCCCNCCCNC(=O)NC1C(OCc2ccccc2)OC(COC(=O)NCCCNCCCCNCCCN)C(O)C1O (stereo not drawn) [4d] |  |  |
|  | 6200 ± 460 | 11700 ± 100 |  | NCCCNCCCCNCCCNC(=O)OCC1OC(n2cnc3c(N)ncnc32)CC1O (stereo not drawn) [compound 7] |  |  |
| relatively low efficacies | 5800 ± 440 | 7700 ± 1440 |  | NCCCCNCCCN [Spermidine, spermidine, reference compound] |  |  |
|  | 1700 ± 20 | 2000 ± 150 |  | NCCNC(=O)NCC1OC(OC2C(NC(=O)NCCN)CC(NC(=O)NCCN)C(OC3OC(CO)C(O)C(NC(=O)NCCN)C3O)C2O)C(O)C(O)C1O (stereo not drawn) [23a] |  |  |
|  | 17600 ± 2150 | 20200 ± 2670 |  | NCCN [Ethylenediamine, ethylenediamine, reference compound] |  |  |
|  | 14400 ± 3670 | 10800 ± 190 |  | NCCNCCN [Diethylenetriamine, diethylenetriamine, reference compound] |  |  |
|  | 800 | 3600 | sub-millimolar | COC1OC(COC(=O)NCCCNCCCCNCCCN)C(O)C(O)C1NC(=O)NCCCNCCCCNCCCN (stereo not drawn) [4b] |  |  |
|  | 1300 ± 90 | 1600 |  | NCCNC(=O)NCC1OC(OC2C(CO)OC(OC3C(O)C(NC(=O)NCCN)CC(NC(=O)NCCN)C3OC3OC(CNC(=O)NCCN)C(O)C(O)C3NC(=O)NCCN)C2O)C(NC(=O)NCCN)C(O)C1O (stereo not drawn) [14a] | highest affinity among the neomycin derivatives |  |
|  | 1900 ± 60 | 1900 ± 10 |  | NCCNC(=O)NCC1OC(OC2C(NC(=O)NCCN)CC(NC(=O)NCCN)C(OC3OC(CO)C(O)C(NC(=O)NCCN)C3O)C2O)C(N)C(O)C1O (stereo not drawn) [compound 24] |  |  |
| relatively low efficacies | 1700 ± 20 | 2800 |  | NCC1OC(OC2C(CO)OC(OC3C(O)C(N)CC(N)C3OC3OC(CN)C(O)C(O)C3N)C2O)C(N)C(O)C1O (stereo not drawn) [Neomycin, neomycin, reference compound] |  |  |
|  | 1100 ± 140 | 2300 |  | NCCCNCCCCNCCCNC(=O)Nc1ncnc2c1ncn2C1CC(OC(=O)NCCCNCCCCNCCCN)C(COC(=O)NCCCNCCCCNCCCN)O1 (stereo not drawn) [compound 11] |  |  |
|  | 800 | 1300 | sub-millimolar | NCCCNCCCCNCCCNC(=O)NC1C(OCc2ccccc2)OC(COC(=O)NCCCNCCCCNCCCN)C(O)C1O (stereo not drawn) [4c] |  |  |
| relatively low efficacies | 4300 ± 640 | 4800 |  | NCCCNCCCCNCCCN [Spermine, spermine, reference compound] |  |  |
|  | 900 | 2800 | sub-millimolar | NCCCNCCCCNCCCNC(=O)NC1C(O)OC(COC(=O)NCCCNCCCCNCCCN)C(O)C1O (stereo not drawn) [4a] |  |  |
|  | 12900 ± 1460 | 12300 ± 250 |  | NCCCNCCCCNCCCNC(=O)OC1CC(n2cnc3c(N)ncnc32)OC1CO (stereo not drawn) [compound 9] |  |  |

| SMILES | % fluorescence decreased [1] | DC50 [2] [µM] | DC50 [3] [µM] | DC50-Cytochrome C on Source 15S [2] | DC50-Cytochrome C on HP Sepharose SP [3] | percent protein displaced (lysozyme) [4] [%] |
| --- | --- | --- | --- | --- | --- | --- |
| NCCCNCCCCNCCCNC(=O)NCC1OC(OC2C(NC(=O)NCCCNCCCCNCCCN)CC(NC(=O)NCCCNCCCCNCCCN)C(OC3OC(CO)C(O)C(NC(=O)NCCCNCCCCNCCCN)C3O)C2O)C(O)C(O)C1O (stereo not drawn) [23c, kanamycin A tetraspermine] |  | 900 | 1000 |  | sub-millimolar |  |
| NCCNC(=O)NCC1OC(OC2C(NC(=O)NCCN)CC(NC(=O)NCCN)C(O)C2O)C(NC(=O)NCCN)C(O)C1O (stereo not drawn) [17a] |  | 2300 ± 40 | 2100 |  |  |  |
| NC[C@H]1O[C@H](O[C@H]2[C@H](O)[C@@H](O)[C@H](N)C[C@@H]2N)[C@H](N)[C@@H](O)[C@@H]1O [Neamine, neamine, reference compound] |  | 4900 ± 1670 | 5600 |  |  |  |
| COC1OC(CO)C(OC2OC(CNC(=O)NCCNCCN)C(O)C(O)C2NC(=O)NCCNCCN)C1O (stereo not drawn) [20a] |  | 4800 ± 30 | 9400 ± 2650 |  |  |  |
| COC1OC(CO)C(OC2OC(CNC(=O)NCCCNCCCCNCCCN)C(O)C(O)C2NC(=O)NCCCNCCCCNCCCN)C1O (stereo not drawn) [20b] |  | 800 ± 40 | 1100 | sub-millimolar |  |  |
| NCCCNCCCCNCCCNC(=O)NCC1OC(OC2C(NC(=O)NCCCNCCCCNCCCN)CC(NC(=O)NCCCNCCCCNCCCN)C(O)C2O)C(NC(=O)NCCCNCCCCNCCCN)C(O)C1O (stereo not drawn) [17b, neamine tetraspermine] |  | 600 | 700 |  | sub-millimolar | 52.8 |
